From paper PMC4743981, “Immunomodulatory and Anti-Inflammatory Activities of Chicken Cathelicidin-2 Derived Peptides” (PLoS ONE, 2016)
Read-outs that look alike come from different tables or passages of the source. Ends that are not written are not given here.

Experiments:
[1] = test system: Avian pathogenic Escherichia coli O78; format: cell-based; details: Avian pathogenic O78, 3 h
Protocol: Avian pathogenic Escherichia coli O78 (field isolate, Zoetis, Kalamazoo, MI) was cultured in Mueller-Hinton broth at 37°C. Overnight grown cultures were diluted to a density of 2×10^6 CFU/ml in Mueller-Hinton broth (non cation-adjusted, Oxoid Ltd., Hampshire, UK) and mixed in a 96 wells polypropylene microwell plate at a 1:1 ratio with peptide (final concentration: 1.25 to 40 μM). After 3 h incubation samples were serially diluted in medium, plated on trypton soy agar (Oxoid Ltd., Hampshire, UK) media and counted after 24 h incubation at 37°C.

[2] = test system: IL-1β transcription in LPS-primed HD11 cells; assay: Neutralization of IL-1β transcription in LPS-primed HD11 cells; format: cell-based, chicken; details: HD11 cells primed 30 min with S. minnesota LPS (100–1000 ng/ml), washed once, 4 h with 20 μM peptide; real time QPCR
Protocol: (§1) HD11 cells were a kind gift of dr. Jos van Putten (department of Infectious diseases and Immunology, Utrecht University, The Netherlands). HD11 cells were seeded in 96 wells tissue culture treated plates (1×10^5 cell/mL) and incubated for 18 h at 37°C (5% CO2) before treatment. For peptide-induced effects cells were treated with RPMI-1640 medium containing 20 μM peptide during 4 h or 24 h. In LPS neutralization experiments, final concentrations of 50–100 ng/ml LPS were pre-incubated with or without 20 μM peptide for 30 min at 37°C (5% CO2), applied to the cells and incubated for 4 h. To examine neutralization of LPS-primed cells HD11 cells were exposed for 30 min to 100–1000 ng/ml S. minnesota LPS, washed once and incubated during 4 h in the absence or presence of 20 μM Peptide. Supernatants were collected for the determination of nitric oxide production (24 h incubations only). […] RNA quantity and purity were tested using a Nanodrop ND-1000 spectrophometer (Nanodrop Technologies, Wilmington, DE). Cytotoxicity of peptides was determined using the cell viability reagent WST-1 (Roche) as described previously, and by measuring LDH release after 24 h exposure. LDH activities in supernatant cell fractions were measured using the Cytoxicity Detection Kit PLUS (Roche) according the manufacturers recommendations and expressed as the % of released LDH relative to the total LDH activity. […]

S. minnesota LPS = assay: LPS binding affinity, dansyl-polymyxin B displacement; parameters: species or system Salmonella minnesota; details: concentration of peptide needed to displace 50% of Dansyl-labeled polymyxin from S. minnesota LPS micelles, unsubstituted (Phe) peptide, read-out: I50 (Phe)
Protocol: Dansyl-polymyxin B was prepared and quantitated as described by Schindler and Teuber. Subsequently, the capacity of peptides to displace dansyl-labeled polymyxin B complexed to S. minnesota LPS was determined according to Moore et al..

CXCLi2/IL-8 = assay: Peptide-induced CXCLi2 transcription in HD11 cells (real time PCR); format: cell-based, chicken; details: 1 to 20 μM peptide, 4 h or 24 h, real time QPCR
Protocol: as §1

MCP-3 = assay: Peptide-induced MCP-3 transcription in HD11 cells (real time PCR); format: cell-based, chicken; details: 1 to 20 μM peptide, 4 h or 24 h, real time QPCR
Protocol: as §1

[3] = test system: NO production by HD11 cells; assay: Peptide-induced nitric oxide production by HD11 cells (Griess); format: cell-based, chicken; details: 24 h exposure to 20 μM peptide without LPS, data not shown
Protocol: HD11 cells were a kind gift of dr. Jos van Putten (department of Infectious diseases and Immunology, Utrecht University, The Netherlands). HD11 cells were seeded in 96 wells tissue culture treated plates (1×10^5 cell/mL) and incubated for 18 h at 37°C (5% CO2) before treatment. For peptide-induced effects cells were treated with RPMI-1640 medium containing 20 μM peptide during 4 h or 24 h. In LPS neutralization experiments, final concentrations of 50–100 ng/ml LPS were pre-incubated with or without 20 μM peptide for 30 min at 37°C (5% CO2), applied to the cells and incubated for 4 h. […] RNA quantity and purity were tested using a Nanodrop ND-1000 spectrophometer (Nanodrop Technologies, Wilmington, DE). Cytotoxicity of peptides was determined using the cell viability reagent WST-1 (Roche) as described previously, and by measuring LDH release after 24 h exposure. LDH activities in supernatant cell fractions were measured using the Cytoxicity Detection Kit PLUS (Roche) according the manufacturers recommendations and expressed as the % of released LDH relative to the total LDH activity.
Nitric oxide production was assessed as the accumulation of nitrite (NO2^−) in cell supernatants during a 24 h incubation period. Nitrite concentrations were determined using a colorimetric reaction with the Griess reagent using (from 1 to 50 μM) sodium nitrite dissolved in water as standards. […]

Compound | MIC [1] [µM] | also measured
FLRKIRRFRPKVTITIQ-NH2 [C(5–21)] | 8.3 ± 5.8 | 
RFLRKIRRFRPKVTITIQ-NH2 [C(4–21)] | 6.7 ± 2.9 | 
CC[C@H](C)[C@H](NC(=O)[C@H](CCCCN)NC(=O)[C@H](CCC(=O)O)NC(=O)[C@H](CCCCN)NC(=O)[C@H](CO)NC(=O)[C@H](CCCCN)NC(=O)[C@H](CCCNC(=N)N)NC(=O)[C@H](Cc1ccccc1)NC(=O)[C@H](Cc1ccccc1)NC(=O)[C@H](CC(=O)O)NC(=O)CNC(=O)[C@H](CC(C)C)NC(=O)[C@@H](N)CC(C)C)C(=O)NCC(=O)N[C@@H](CCCCN)C(=O)N[C@@H](CCC(=O)O)C(=O)N[C@@H](Cc1ccccc1)C(=O)N[C@@H](CCCCN)C(=O)N[C@@H](CCCNC(=N)N)C(=O)N[C@H](C(=O)N[C@H](C(=O)N[C@@H](CCC(N)=O)C(=O)N[C@@H](CCCNC(=N)N)C(=O)N[C@H](C(=O)N[C@@H](CCCCN)C(=O)N[C@@H](CC(=O)O)C(=O)N[C@@H](Cc1ccccc1)C(=O)N[C@@H](CC(C)C)C(=O)N[C@@H](CCCNC(=N)N)C(=O)N[C@@H](CC(N)=O)C(=O)N[C@@H](CC(C)C)C(=O)N[C@H](C(=O)N1CCC[C@H]1C(=O)N[C@@H](CCCNC(=N)N)C(=O)N[C@H](C(=O)N[C@@H](CCC(=O)O)C(=O)N[C@@H](CO)C(=O)O)[C@@H](C)O)C(C)C)[C@@H](C)CC)C(C)C)[C@@H](C)CC [LL37] |  | inhibition of IL-1β transcription induced by LPS priming (in words) [2]: strongly inhibited; IC50 (S. minnesota LPS): 0.28 ± 0.04 µM; induction of CXCLi2 transcription (in words) (CXCLi2/IL-8): inducing the transcription; induction of MCP-3 transcription (in words) (MCP-3): inducing the transcription; increase of NO levels [3]: 2 fold
KIRRFRPKVTITIQ-NH2 [C(8–21)] | 11.7 ± 7.6 | 
RWGRWLRKIRRWRPKVTITIQ-NH2 [C(1–21)W3] | 13.3 ± 5.8 | 
IRRFRPKVTITIQ-NH2 [C(9–21)] | 8.3 ± 2.9 | 
RWLRKIRRWRPKVTITIQ-NH2 [C(4–21)W2] | 8.3 ± 2.9 | 
RRWRPKVTITIQ-NH2 [C(10–21)W] | 11.7 ± 7.6 | 
RFGRFLRKIRRFRPK [C(1–15)] | 16.7 ± 5.8 | 
RYLRKIRRYRPKVTITIQ-NH2 [C(4–21)Y2] | 10.0 ± 0.0 | 
RFGRFLRKIRRFRPKVTITIQ-NH2 [C(1–21)] | 13.3 ± 5.8 | 
RFGRFLRKIRRFRPKVTITIQGSARF-NH2 [CATH-2] | 5.0 ± 0.0 | 
RYGRYLRKIRRYRPKVTITIQ-NH2 [C(1–21)Y3] | 10.0 ± 0.0 | 
Polymyxin B |  | IC50 (S. minnesota LPS; listed as polymyxin B): 4.19 µM; IC50 (S. minnesota LPS): 3.46 ± 0.17 µM
RFRPKVTITIQ-NH2 [C(11–21)] | 8.3 ± 2.9 | 
RRYRPKVTITIQ-NH2 [C(10–21)Y] | 16.7 ± 5.8 | 
RKIRRWRPKVTITIQ-NH2 [C(7–21)W] | 13.3 ± 5.8 | 
RKIRRYRPKVTITIQ-NH2 [C(7–21)Y] | 11.7 ± 7.6 | 
RRFRPKVTITIQ-NH2 [C(10–21)] | 6.7 ± 2.9 | 
RKIRRFRPKVTITIQ-NH2 [C(7–21)] | 8.3 ± 2.9 | 
